Laboratory results as given in patent US9062041B2 (Bayer Intellectual Property GmbH, priority 2011, dated 2015).

How the values were obtained:
Type in all cases: cell-based
[1] = target: EP2 subtype of the human PGE2 receptor (Homo sapiens, UniProt P43116); assay: cAMP antagonism test on the human EP2 receptor (HTRF cAMP detection); conditions: hEP2 receptor, read-out: Antagonism hEP2 IC50
In short: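 Cells expressing human EP2 preincubated 20 min at RT with compound (0.8 nM–16.5 μM), then stimulated 60 min with PGE2 (3× solution 1.5 nM) in PBS-IBMX. After 20 min lysis, cAMP measured by competitive HTRF with cAMP-d2 and Eu cryptate anti-cAMP antibody (665/620 nm ratio).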

human PGD receptor = target: T1, human PGD receptor (Homo sapiens, UniProt Q13258); assay: cAMP antagonism test on the human prostaglandin D receptor (HTRF cAMP detection); conditions: selectivity towards hDP, IC50 measured by cAMP antagonism test
T1 sequence (Q13258 1-359): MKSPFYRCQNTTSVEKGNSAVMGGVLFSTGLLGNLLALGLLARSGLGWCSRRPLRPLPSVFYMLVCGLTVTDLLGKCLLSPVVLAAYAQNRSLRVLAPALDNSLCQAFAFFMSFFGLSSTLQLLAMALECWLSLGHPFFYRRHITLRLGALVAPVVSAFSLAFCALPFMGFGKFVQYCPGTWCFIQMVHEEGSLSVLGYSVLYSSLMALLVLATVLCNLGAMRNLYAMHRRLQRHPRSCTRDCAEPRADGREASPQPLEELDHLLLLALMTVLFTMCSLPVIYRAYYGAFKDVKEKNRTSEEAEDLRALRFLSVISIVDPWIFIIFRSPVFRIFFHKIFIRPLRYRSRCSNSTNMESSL
In short: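 Cells pre-mixed with cAMP-d2 were preincubated with compound (0.8 nM–16.5 μM) for 20 min at RT, then stimulated with 3× PGD2 solution (6 nM, in PBS-IBMX) for 30 min at RT. After lysis (20 min), HTRF read at 665/620 nm; antagonism seen as rise in FRET ratio.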

[2] = target: EP4 subtype of the human PGE2 receptor (Homo sapiens, UniProt P35408); assay: cAMP antagonism test on the human EP4 receptor (HTRF cAMP detection); conditions: selectivity towards hEP4, IC50 measured by cAMP antagonism test
Sequence of EP4 subtype of the human PGE2 receptor (P35408 whole entry): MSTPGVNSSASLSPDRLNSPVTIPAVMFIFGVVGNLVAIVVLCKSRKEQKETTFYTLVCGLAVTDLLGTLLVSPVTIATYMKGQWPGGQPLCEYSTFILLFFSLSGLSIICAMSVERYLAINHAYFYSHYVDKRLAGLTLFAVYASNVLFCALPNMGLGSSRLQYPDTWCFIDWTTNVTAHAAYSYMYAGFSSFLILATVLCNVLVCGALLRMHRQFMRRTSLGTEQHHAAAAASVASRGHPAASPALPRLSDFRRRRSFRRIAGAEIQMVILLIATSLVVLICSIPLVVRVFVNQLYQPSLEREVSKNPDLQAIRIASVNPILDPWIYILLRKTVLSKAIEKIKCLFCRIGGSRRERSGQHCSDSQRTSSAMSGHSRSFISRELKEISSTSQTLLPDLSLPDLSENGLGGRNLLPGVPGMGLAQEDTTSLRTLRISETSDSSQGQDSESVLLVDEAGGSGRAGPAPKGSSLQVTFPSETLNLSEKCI
In short: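 Cells expressing human EP4 preincubated 20 min at RT with compound (0.8 nM–16.5 μM), then stimulated with PGE2 (0.3 nM in 3× solution, with IBMX) 60 min at RT. After lysis, cAMP measured by HTRF competition (665/620 nm ratio); antagonism seen as rise in FRET signal.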

Sequence of EP2 subtype of the human PGE2 receptor (P43116 whole entry): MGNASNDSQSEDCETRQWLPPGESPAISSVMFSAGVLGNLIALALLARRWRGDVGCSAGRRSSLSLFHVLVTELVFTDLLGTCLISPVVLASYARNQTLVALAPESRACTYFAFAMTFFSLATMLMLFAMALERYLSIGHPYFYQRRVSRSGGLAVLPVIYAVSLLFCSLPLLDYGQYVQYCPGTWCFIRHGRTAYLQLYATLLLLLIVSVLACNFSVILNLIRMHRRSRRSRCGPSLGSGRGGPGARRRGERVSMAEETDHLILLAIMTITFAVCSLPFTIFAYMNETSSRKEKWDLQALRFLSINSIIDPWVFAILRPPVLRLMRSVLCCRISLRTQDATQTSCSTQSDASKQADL

| Structure (SMILES) | IC50 [1] [nM] | Selectivity hEP2/hDP (human PGD receptor) | Selectivity hEP2/hEP4 [2] |
| --- | --- | --- | --- |
| COCCNC(=O)c1ccc2nn(CC3CCN(C(=O)c4ccc(-c5cccnc5)c(C)c4)CC3)cc2c1C [Example 392, N-(2-methoxyethyl)-4-methyl-2-({1-[3-methyl-4-(3-pyridyl)benzoyl]piperidin-4-yl}methyl)-2H-indazol-5-carboxamide] | 21.8 | xxx (xxx > 100) | xxx (xxx > 100) |
| COc1cc(F)ccc1-c1ccc(C(=O)N2CCC(Cn3cc4c(C)c(C(=O)NCC(F)(F)F)ccc4n3)CC2)cc1 [Example 320, 2-({1-[(4′-fluoro-2′-methoxybiphenyl-4-yl)carbonyl]piperidin-4-yl}methyl)-4-methyl-N-(2,2,2-trifluoroethyl)-2H-indazol-5-carboxamide] | 15.6 | xxx (xxx > 100) | xxx (xxx > 100) |
| Cc1c(C(=O)NCCS(C)(=O)=O)ccc2nn(CC3CCN(C(=O)c4ccc(Oc5ccc(C(F)(F)F)nc5)cc4)CC3)cc12 [Example 397, N-(2-mesylethyl)-4-methyl-2-{[1-(4-{[6-(trifluoromethyl)pyridin-3-yl]oxy}-benzoyl)piperidin-4-yl]methyl}-2H-indazol-5-carboxamide] | 12.5 | xxx (xxx > 100) | xxx (xxx > 100) |
| COCCNC(=O)c1ccc2nn(CC3CCN(C(=O)c4ccc(Oc5cccc(C(F)(F)F)c5)cc4)CC3)cc2c1C [Example 355, N-(2-methoxyethyl)-4-methyl-2-[(1-{4-[3-(trifluoromethyl)phenoxy]benzoyl}-piperidin-4-yl)methyl]-2H-indazol-5-carboxamide] | 5.39 | xxx (xxx > 100) | xxx (xxx > 100) |
| COCCNC(=O)c1ccc2nn(CC3CCN(C(=O)c4ccc(-c5ccc(OC)nc5)cc4)CC3)cc2c1C [Example 375, N-(2-methoxyethyl)-2-({1-[4-(6-methoxypyridin-3-yl)benzoyl]piperidin-4-yl}-methyl)-4-methyl-2H-indazol-5-carboxamide] | 5.8 | xxx (xxx > 100) | xxx (xxx > 100) |
| COc1ccc2cc(C(=O)N3CCC(Cn4cc5c(C)c(C(=O)NCC(F)(F)F)ccc5n4)CC3)n(C)c2c1 [Example 295, 2-({1-[(6-methoxy-1-methyl-1H-indol-2-yl)carbonyl]piperidin-4-yl}methyl)-4-methyl-N-(2,2,2-trifluoroethyl)-2H-indazol-5-carboxamide] | 70.8 | xxx (xxx > 100) | xxx (xxx > 100) |
| COCCNC(=O)c1ccc2nn(CC3CCN(C(=O)c4ccc(Oc5ccc(F)cc5F)cc4)CC3)cc2c1C [Example 358, 2-({1-[4-(2,4-difluorophenoxy)benzoyl]piperidin-4-yl}methyl)-N-(2-methoxy-ethyl)-4-methyl-2H-indazol-5-carboxamide] | 8.01 | xxx (xxx > 100) | xxx (xxx > 100) |
| COCCNC(=O)c1ccc2nn(C[C@H]3CCN(C(=O)c4ccc(Cl)cc4)C3)cc2c1C [Example 222, 2-{[(S)-1-(4-chlorobenzoyl)pyrrolidin-3-yl]methyl}-N-(2-methoxyethyl)-4-methyl-2H-indazol-5-carboxamide] | 40.9 | xxx (xxx > 100) | xxx (xxx > 100) |
| CCOc1c(C(=O)NCCOC)ccc2nn(CC3CCN(C(=O)c4ccc(Cl)cc4)CC3)cc12 [Example 274, 2-{[1-(4-chlorobenzoyl)piperidin-4-yl]methyl}-4-ethoxy-N-(2-methoxyethyl)-2H-indazol-5-carboxamide] | 44.6 | xxx (xxx > 100) | xxx (xxx > 100) |
| Cc1cc2nn(CC3CN(C(=O)c4ccc(Cl)cc4)C3)cc2cc1C(=O)NCC(F)(F)F [Example 190, 2-{[1-(4-chlorobenzoyl)azetidin-3-yl]methyl}-6-methyl-N-(2,2,2-trifluoroethyl)-2H-indazol-5-carboxamide] | 272 | xx (xx: 10-100) | xx (xx: 10-100) |
| Cc1c(C(=O)NCC(F)(F)F)ccc2nn(CC3CCN(C(=O)c4ccc(Oc5ccc(F)c(F)c5)cc4)CC3)cc12 [Example 314, 2-({1-[4-(3,4-difluorophenoxy)benzoyl]piperidin-4-yl}methyl)-4-methyl-N-(2,2,2-trifluoroethyl)-2H-indazol-5-carboxamide] | 27.8 | xxx (xxx > 100) | xxx (xxx > 100) |
| COCCNC(=O)c1ccc2nn(CC3CCN(C(=O)c4ccc(OC(C)C)cc4F)CC3)cc2c1C [Example 362, 2-{[1-(2-fluoro-4-isopropoxybenzoyl)piperidin-4-yl]methyl}-N-(2-methoxy-ethyl)-4-methyl-2H-indazol-5-carboxamide] | 15.1 | xxx (xxx > 100) | xxx (xxx > 100) |
| COc1ccc2c(c1)cc(C(=O)N1CCC(Cn3cc4c(C)c(C(=O)NCC(F)(F)F)ccc4n3)CC1)n2C [Example 293, 2-({1-[(5-methoxy-1-methyl-1H-indol-2-yl)carbonyl]piperidin-4-yl}methyl)-4-methyl-N-(2,2,2-trifluoroethyl)-2H-indazol-5-carboxamide] | 28.3 | xxx (xxx > 100) | xxx (xxx > 100) |
| COCCNC(=O)c1ccc2nn(CC3CCN(C(=O)c4ccc(N5CCOCC5)cc4F)CC3)cc2c1C [Example 53, 2-{[1-(2-fluoro-4-morpholinobenzoyl)-piperidin-4-yl]-methyl}-N-(2-methoxyethyl)-4-methyl-2H-indazol-5-carboxamide] | 44.2 | xxx (xxx > 100) | xxx (xxx > 100) |
| Cc1c(C(=O)NCC(F)(F)F)ccc2nn(CC3CCN(C(=O)c4ccc(Oc5cccc(C(F)(F)F)c5)cc4)CC3)cc12 [Example 308, 4-methyl-N-(2,2,2-trifluoroethyl)-2-[(1-{4-[3-(trifluoromethyl)phenoxy]-benzoyl}piperidin-4-yl)methyl]-2H-indazol-5-carboxamide] | 22.2 | xxx (xxx > 100) | xxx (xxx > 100) |
| COCCNC(=O)c1ccc2nn(CC3CN(C(=O)c4ccc(Oc5ccc(Cl)cc5)cc4)C3)cc2c1C [Example 166, 2-({1-[4-(4-chlorophenoxy)benzoyl]azetidin-3-yl}methyl)-N-(2-methoxyethyl)-4-methyl-2H-indazol-5-carboxamide] | 2.87 | xxx (xxx > 100) | xxx (xxx > 100) |
| Cc1c(C(=O)NCCOC(C)(C)C)ccc2nn(CC3CCN(C(=O)c4ccc(Cl)cc4)CC3)cc12 [Example 111, N-(2-tert-butoxyethyl)-2-{[1-(4-chlorobenzoyl)piperidin-4-yl]methyl}-4-methyl-2H-indazol-5-carboxamide] | 13.7 | xxx (xxx > 100) | xxx (xxx > 100) |
| CCOCCNC(=O)c1ccc2nn(CC3CCN(C(=O)c4ccc(Cl)cc4)CC3)cc2c1OC [Example 264, 2-{[1-(4-chlorobenzoyl)piperidin-4-yl]methyl}-N-(2-ethoxyethyl)-4-methoxy-2H-indazol-5-carboxamide] | 13.7 | xxx (xxx > 100) | xxx (xxx > 100) |
